Experiments:
Format in all cases: in vivo
SS RBCs = assay: RBC sickling under hypoxia ex vivo, RBCs from treated SCD mice; conditions: Townes S/S mice; for effect on red blood cell sickling under hypoxia (conclusion): 185 mg/kg i.p. daily D0 to D15; for percentage of sickling cells at D0 / percentage of sickling cells after 15 days treatment: 185 mg/kg/d i.p., RBCs ex vivo 30 minutes hypoxia (1% Oz)
Description: (§1) The aim of the present study was to evaluate, the effects of i.p. daily administration of compounds 001, 010 and 011 at 185 mg/kg as modulator of red blood cell sickling and fetal hemoglobin expression in erythroid cells and its potential role in therapy for sickle cell disease on mouse model of SCD.
(§2) Townes S/S mice on a 129/B6 mixed genetic background.
(§3) The powders of compounds 001, 010 and 011 (185 mg/kg) were dissolved in vehicle (the solution is used at room temperature for maximum 1 day). A fresh sample for each administration was prepared every day except the week-end (the solution is prepared on Saturday and is used on Saturday and Sunday).
(§4) In Townes S/S mice, mouse alpha- and beta-globin gene loci are deleted and replaced by human alpha- and beta-globin genes. When carrying two copies of the beta S allele, mice develop a human sickle disease phenotype with sickle-shaped red blood cells are seen in blood smears.
(§5) Group description: • Group 1: Vehicle (i.p.) • Group 2: compound 001 (185 mg/kg) • Group 3 compound 010 (185 mg/kg) • Group 4: compound 011 (185 mg/kg)
(§6) Mice were i.p treated with compounds 001, 010 and 011 during all the experiment (D0 to D15) once per day. Last injection occurred 24 hours before sacrifice.
(§7) Retro-orbital blood collection was performed at the inclusion D0 and at D5, D10 and D15 through facial vein bleeding.
(§8) Ex-vivo blood collected were assessed for percentage of F-cells using antibodies against fetal hemoglobin by FACS and reticulocyte counts using reticount by FACS. Red blood cells sickling was assessed under hypoxia.
FIGS. 3, 4 and 5 show the ability of compounds 001 (FIG. 3), 010 (FIG. 4) and 011 (FIG. 5) to prevent sickling of SS RBCs at a 1% Oz. SS RBCs from treated mice and collected at D0, D5, D10 and D15 were submitted to hypoxia for 30 minutes in a hypoxic chamber (1% Oz). Percentage of sickling RBCs was then assessed for each time point with compounds 001, 010 and 011.

Townes S/S mice [1] = assay: Hemoglobin concentration in blood of SCD-model mice; conditions: for effect on hemoglobin concentration in blood: i.p. once per day D0 to D15 (compound 001 185 mg/kg, L-Gln 180 mg/kg), under normoxia and hypoxia, vs vehicle or L-Gln
Description: (§9) The purpose of this study is to evaluate the effects of i.p. daily administration of compound 001 at 185 mg/kg and/or L-Glutamine (L-Gln) at 180 mg/Kg on hematological parameters and RBC sickling. L-Gln has received approval by the FDA for the treatment of sickle cell disease (SCD) patients in the United States as it has been shown that L-Gln administration reduces the severity and frequency of VOCs. Townes S/S mice on a 129/B6 mixed genetic background aged 8-12 weeks. The powder of compound 001 (185 mg/kg) was dissolved in vehicle (the solution is used at room temperature for maximum 1 day). The powder of L-Glutamine (180 mg/kg) was dissolved in vehicle (the solution is used at room temperature for maximum 1 day). In Townes S/S mice, mouse alpha- and beta-globin gene loci are deleted and replaced by human genes coding for the alpha- and beta-globin. When carrying two copies of the beta S allele, mice develop a human sickle disease phenotype with sickle-shaped red blood cells are seen in blood smears. Group description: • Group 1: Vehicle PBS (i.p.) • Group 2: Compound 001 (185 mg/kg) • Group 3 L-Gln (180 mg/kg) • Group 4: Compound 001 (185 mg/kg)+L-Gln (180 mg/kg) Mice were i.p treated with Compound 001, L-Gln or the combination of compound 001+L-Gln during all the experiment (D0 to D15) once per day. Last injection occurred 24 hours before sacrifice. Retro-orbital blood collection was performed at the inclusion and at D15. Ex-vivo blood collected were assessed for blood parameters and RBC sickling ex vivo under normoxia (20% Oz) and hypoxia (1% Oz for 0.5 hour).

Townes S/S mice [2] = assay: Concentration of red blood cells in blood of SCD-model mice; conditions: for effect on concentration of RBC in blood: i.p. once per day D0 to D15 (compound 001 185 mg/kg, L-Gln 180 mg/kg), under normoxia and hypoxia, vs vehicle or L-Gln
Description: as §9

Townes S/S mice [3] = assay: Hematocrit percentage in blood of SCD-model mice; conditions: for effect on hematocrit percentage in blood: i.p. once per day D0 to D15 (compound 001 185 mg/kg, L-Gln 180 mg/kg), under normoxia and hypoxia, vs vehicle or L-Gln
Description: as §9, with “hour). […] III. CONCLUSION” for “hour).”

F-cells = assay: Percentage of F-cells using antibodies against fetal hemoglobin by FACS, blood of treated SCD mice; conditions: Townes S/S mice; for effect on proportion of circulating erythroid cells expressing fetal hemoglobin (conclusion): 185 mg/kg i.p. daily D0 to D15
Description: as §1, §2, §3, §4, §5, §6, §7, §8

reticulocytes = assay: Reticulocyte counts using Reticount by FACS, blood of treated SCD mice; conditions: Townes S/S mice, 185 mg/kg/d i.p.
Description: The aim of the present study was to evaluate, the effects of i.p. daily administration of compounds 001, 010 and 011 at 185 mg/kg as modulator of red blood cell sickling and fetal hemoglobin expression in erythroid cells and its potential role in therapy for sickle cell disease on mouse model of SCD. Townes S/S mice on a 129/B6 mixed genetic background. The powders of compounds 001, 010 and 011 (185 mg/kg) were dissolved in vehicle (the solution is used at room temperature for maximum 1 day). A fresh sample for each administration was prepared every day except the week-end (the solution is prepared on Saturday and is used on Saturday and Sunday). In Townes S/S mice, mouse alpha- and beta-globin gene loci are deleted and replaced by human alpha- and beta-globin genes. When carrying two copies of the beta S allele, mice develop a human sickle disease phenotype with sickle-shaped red blood cells are seen in blood smears. Group description: • Group 1: Vehicle (i.p.) • Group 2: compound 001 (185 mg/kg) • Group 3 compound 010 (185 mg/kg) • Group 4: compound 011 (185 mg/kg) Mice were i.p treated with compounds 001, 010 and 011 during all the experiment (D0 to D15) once per day. […] Ex-vivo blood collected were assessed for percentage of F-cells using antibodies against fetal hemoglobin by FACS and reticulocyte counts using reticount by FACS. Red blood cells sickling was assessed under hypoxia.

[4] = 185 mg/kg/d i.p., hypoxia (1% Oz for 0.5 hour) vs normoxia

Row | Compound | effect on red blood cell sickling under hypoxia (conclusion) (SS RBCs) | percentage of sickling cells at D0 (SS RBCs) [%] | percentage of sickling cells after 15 days treatment (SS RBCs) | effect of hypoxia on hemoglobin in blood of treated mice (Townes S/S mice [1]; [4]) | effect on hemoglobin concentration in blood (Townes S/S mice [1]) | effect of hypoxia on RBC in blood of treated mice (Townes S/S mice [2]; [4]) | effect on concentration of RBC in blood (Townes S/S mice [2]) | effect of hypoxia on hematocrit percentage in blood of treated mice (Townes S/S mice [3]; [4]) | effect on hematocrit percentage in blood (Townes S/S mice [3]) | effect on proportion of circulating erythroid cells expressing fetal hemoglobin (conclusion) (F-cells) | mean F-cells after treatment (F-cells; 185 mg/kg/d i.p., over the 15 days treatment) [%] | mean F-cells, starting value (F-cells; 185 mg/kg/d i.p., value before the 15 days treatment) | percentage of reticulocytes after treatment (reticulocytes; over the 15 days treatment) [%] | percentage of reticulocytes, starting value (reticulocytes; value before the 15 days treatment) [%]
1 | NC(=O)c1ccc[n+]([C@@H]2O[C@H](COP(=O)([O-])O)[C@@H](O)[C@H]2O)c1 (stereo in doubt) [Compound 001, NMN] | reduce red blood cell sickling under hypoxia | 40 | less than 10% | did not result in a decrease | significant increase | did not result in a decrease | significant increase | did not result in a decrease | significant increase | increase the proportion of circulating erythroid cells expressing fetal hemoglobin | 8 | less than 5% | 30 | 70
2 | NC(=O)CC[C@H](N)C(=O)O [L-Gln, L-Glutamine, reference compound] |  |  |  |  | did not affect |  | did not affect |  | did not affect |  |  |  |  | 
3 | α,α-diNMN [Compound 011] | reduce red blood cell sickling under hypoxia | 31 | 20% |  |  |  |  |  |  | increase the proportion of circulating erythroid cells expressing fetal hemoglobin |  |  |  | 
4 | α,β-diNMN [Compound 010] | reduce red blood cell sickling under hypoxia | 32 | less than 15% |  |  |  |  |  |  | increase the proportion of circulating erythroid cells expressing fetal hemoglobin |  |  |  | 

From patent US12403153B2, “Nicotinamide mononucleotide derivatives and use thereof in the treatment and prevention of a red blood cell disorder” (Nuvamid SA, priority 2020, dated 2025)
